Source: DBAASP
In brackets after ≈: the same amount, converted by molar mass.

Columns and labels:
Experiment in all cases: ≥ marks a high value that may be exact or a test limit, other limits are often not marked, values filed in µg/mL are converted to µM
[1] = system: Escherichia coli ATCC 25922
[2] = system: Staphylococcus epidermidis ATCC 12228
[3] = system: Candida albicans ATCC 24433
[4] = system: Pseudomonas aeruginosa ATCC 27853
[5] = system: Candida albicans NCYC 1467
[6] = system: Staphylococcus aureus NCTC 12493
[7] = system: Staphylococcus aureus NCTC 10788
[8] = system: Klebsiella pneumoniae ATCC 43816
[9] = system: Escherichia coli NCTC 10418
[10] = system: Enterococcus faecalis NCTC 12697
[11] = system: Listeria monocytogenes EGD
[12] = system: Staphylococcus aureus ATCC 25923
[13] = system: Candida albicans ATCC 90028
[14] = system: Trichophyton rubrum ATCC 28189
Escherichia coli ML-35p = system: Escherichia coli ML-35p
[15] = system: Pseudomonas aeruginosa 522/17
[16] = system: Acinetobacter baumannii 7226/16
[17] = system: Klebsiella pneumoniae ESBL 344/17
[18] = system: Staphylococcus aureus 1399/17
[19] = system: Escherichia coli ESBL 521/17
[20] = system: Staphylococcus aureus SG511
[21] = system: Staphylococcus aureus ATCC 33591
Escherichia coli = system: Escherichia coli
[22] = system: Candida parapsilosis ATCC 22019
Staphylococcus aureus = system: Staphylococcus aureus
[23] = system: Salmonella enterica subsp. enterica serovar Typhimurium ATCC 14028
[24] = system: Salmonella enterica subsp. enterica serovar Pullorum C79-13
[25] = system: Bacillus subtilis CMCC 63501
[26] = system: Enterococcus faecalis ATCC 29212
Escherichia coli UB1005 = system: Escherichia coli UB1005
[27] = system: Staphylococcus aureus ATCC 29213

Molecule `CC(C)C[C@H](NC(=O)CNC(=O)CNC(=O)CNC(=O)[C@H](C)NC(=O)[C@H](CC(C)C)NC(=O)[C@H](CC(N)=O)NC(=O)CNC(=O)[C@H](CC(C)C)NC(=O)[C@H](CC(C)C)NC(=O)CNC(=O)[C@@H](NC(=O)[C@@H](NC(=O)[C@H](CO)NC(=O)[C@H](CC(N)=O)NC(=O)[C@H](CC(C)C)NC(=O)[C@H](CC(C)C)NC(=O)CNC(=O)[C@H](CO)NC(=O)[C@@H](NC(=O)[C@H](CC(C)C)NC(=O)CN)C(C)C)C(C)C)[C@@H](C)O)C(=O)O` [GLVSGLLNSVTGLLGNLAGGGL] has an MIC [1] greater than 100 µM, an MIC [2] greater than 100 µM and an MIC [3] of no less than 100 µM.
`CC[C@H](C)[C@@H]1NC(=O)[C@H](C)NC(=O)[C@@H](NC(=O)[C@H](Cc2ccccc2)NC(=O)[C@@H](NC(=O)[C@H](CCCCN)NC(=O)[C@@H]2CCCN2C(=O)[C@H](CC(C)C)NC(=O)[C@H](Cc2ccccc2)NC(=O)[C@@H](N)CCCCN)[C@@H](C)CC)CSSC[C@@H](C(=O)O)NC(=O)[C@H](CCCCN)NC(=O)[C@H](CCCCN)NC(=O)[C@H]([C@@H](C)O)NC1=O` [KFLPKIFCAITKKC] was tested, and the MIC [4] was 512 µM (≈ 839 µg/mL), the MIC [5] was no less than 128 µM and the MIC [6] was 16 µM (≈ 26.2 µg/mL). For the same molecule, the MIC [7] was 8 µM (≈ 13.1 µg/mL), the MIC [8] was no less than 256 µM and the MIC [9] was no less than 32 µM. For the same molecule, the MIC [10] was no less than 512 µM.
`CC[C@H](C)[C@@H]1NC(=O)[C@H](C)NC(=O)[C@@H](NC(=O)[C@H](Cc2ccccc2)NC(=O)[C@@H](NC(=O)[C@H](CCCCN)NC(=O)[C@H](Cc2c[nH]c3ccccc23)NC(=O)[C@@H]2CCCN2C(=O)[C@H](CC(C)C)NC(=O)[C@H](Cc2ccccc2)NC(=O)[C@@H](N)CCCCN)[C@@H](C)CC)CSSC[C@@H](C(=O)O)NC(=O)[C@H](CCCCN)NC(=O)[C@H](CCCCN)NC(=O)[C@H]([C@@H](C)O)NC1=O` [KFLPWKIFCAITKKC] gave an MIC [4] of 128 µM (≈ 234 µg/mL), an MIC [5] of 16 µM (≈ 29.2 µg/mL) and an MIC [6] of 8 µM (≈ 14.6 µg/mL). For the same molecule, the MIC [7] was 8 µM (≈ 14.6 µg/mL), the MIC [8] was no less than 64 µM and the MIC [9] was 16 µM (≈ 29.2 µg/mL). The MIC [10] was no less than 256 µM.
`CC[C@H](C)[C@H](NC(=O)[C@H](C)NC(=O)[C@@H](NC(=O)[C@@H](NC(=O)[C@@H](NC(=O)CNC(=O)[C@H](CCCCN)NC(=O)[C@H](CCCCN)NC(=O)CNC(=O)[C@@H](N)CCCCN)C(C)C)[C@@H](C)CC)[C@@H](C)CC)C(=O)N[C@@H](CC(C)C)C(=O)N[C@@H](CC(C)C)C(=O)N[C@@H](Cc1ccccc1)C(=O)N[C@@H](C)C(=O)N[C@H](C(=O)N[C@H](C(=O)N[C@@H](Cc1ccc(O)cc1)C(=O)N[C@@H](CCCCN)C(=O)N[C@@H](CCCCN)C(=O)N[C@@H](CCCCN)C(N)=O)[C@@H](C)CC)[C@@H](C)CC` [KGKKGVIIAILLFAIIYKKK] was tested, and the MIC [4] was 128 µM (≈ 287 µg/mL), the MIC [1] was 128 µM (≈ 287 µg/mL) and the MIC [11] was no less than 128 µM. The MIC [12] was 128 µM (≈ 287 µg/mL).
Molecule `CC[C@H](C)[C@H](NC(=O)[C@H](C)NC(=O)[C@H](CCCCN)NC(=O)[C@@H](NC(=O)[C@H](CC(C)C)NC(=O)[C@H](C)NC(=O)CNC(=O)[C@@H](NC(=O)[C@H](CCCCN)NC(=O)[C@H](Cc1ccccc1)NC(=O)[C@H](Cc1ccc(O)cc1)NC(=O)[C@H](CCCCN)NC(=O)[C@H](CCCCN)NC(=O)[C@H](CC(C)C)NC(=O)[C@@H](NC(=O)CNC(=O)[C@@H](NC(=O)[C@@H](N)CCCCN)[C@@H](C)CC)C(C)C)[C@@H](C)CC)[C@@H](C)CC)C(=O)N[C@H](C(=O)N[C@@H](CCCCN)C(N)=O)[C@@H](C)CC` [KIGVLKKYFKIGALIKAIIK] has an MIC [4] of 2 µM (≈ 4.49 µg/mL), an MIC [1] of 8 µM (≈ 18 µg/mL) and an MIC [11] of 1 µM (≈ 2.24 µg/mL). The MIC [12] was 8 µM (≈ 18 µg/mL).
In the case of `CC[C@H](C)[C@H](NC(=O)[C@H](Cc1ccc(O)cc1)NC(=O)[C@H](CC(N)=O)NC(=O)[C@H](CC(N)=O)NC(=O)[C@H](Cc1ccccc1)NC(=O)[C@@H](N)CC(C)C)C(=O)N[C@H](C(=O)N[C@@H](C)C(=O)N[C@@H](C)C(=O)N[C@@H](CC(C)C)C(=O)N[C@@H](CCCCN)C(=O)N[C@@H](CC(C)C)C(=O)N[C@@H](CC(C)C)C(=O)N[C@@H](CCC(=O)O)C(=O)N[C@@H](CCCCN)C(=O)N[C@@H](CC(C)C)C(=O)N[C@@H](Cc1ccc(O)cc1)C(=O)N[C@@H](CCCCN)C(=O)N[C@H](C(N)=O)C(C)C)[C@@H](C)O` [LFNNYITAALKLLEKLYKV], the MIC [13] is reported as 8 µM (≈ 18 µg/mL), the MIC [2] is reported as 5.33 µM (≈ 12 µg/mL) and the MIC [12] is reported as 4 µM (≈ 9.02 µg/mL). It also gave an MIC [14] of no less than 32 µM.
For `CC[C@H](C)[C@H](NC(=O)[C@H](CCCN=C(N)N)NC(=O)[C@@H](NC(=O)[C@H](Cc1ccccc1)NC(=O)[C@@H]1CCCN1C(=O)[C@@H]1CCCN1C(=O)[C@@H]1CCCN1C(=O)[C@H](Cc1cnc[nH]1)NC(=O)[C@@H](NC(=O)[C@H](CCCN=C(N)N)NC(=O)[C@H](CCCN=C(N)N)NC(=O)[C@H](Cc1ccccc1)NC(=O)[C@@H]1CCCN1C(=O)[C@H](CC(C)C)NC(=O)[C@H](CCCN=C(N)N)NC(=O)[C@H](Cc1ccccc1)NC(=O)[C@@H](N)CCCN=C(N)N)[C@@H](C)CC)C(C)C)C(=O)N[C@@H](Cc1cnc[nH]1)C(=O)N1CCC[C@H]1C(=O)N1CCC[C@H]1C(=O)N1CCC[C@H]1C(=O)N[C@@H](Cc1ccccc1)C(=O)N[C@@H](Cc1ccc(O)cc1)C(=O)N[C@@H](CCCN=C(N)N)C(=O)N[C@@H](CCCN=C(N)N)C(=O)N[C@@H](Cc1ccccc1)C(=O)N[C@@H](CC(C)C)C(=O)O` [RFRLPFRRIHPPPFVRIHPPPFYRRFL], the MIC (Escherichia coli ML-35p) was 2.83 µM (≈ 9.95 µg/mL), the MIC [15] was 16 µM (≈ 56.3 µg/mL) and the MIC [16] was 4 µM (≈ 14.1 µg/mL). For the same molecule, the MIC [17] was 8 µM (≈ 28.1 µg/mL), the MIC [18] was 8 µM (≈ 28.1 µg/mL) and the MIC [19] was 5.66 µM (≈ 19.9 µg/mL). The MIC [20] was 0.25 µM (≈ 0.879 µg/mL) and the MIC [21] was 16 µM (≈ 56.3 µg/mL).
Molecule `CC[C@H](C)[C@H](NC(=O)[C@H](CC(C)C)NC(=O)[C@H](CC(=O)O)NC(=O)[C@H](CO)NC(=O)[C@H](CCCN=C(N)N)NC(=O)[C@@H](N)CO)C(=O)N[C@H](C(=O)N[C@@H](Cc1cnc[nH]1)C(=O)N[C@@H](CCC(N)=O)C(=O)N[C@@H](CCCN=C(N)N)C(=O)N[C@@H](CC(C)C)C(=O)N[C@@H](Cc1ccccc1)C(N)=O)C(C)C` [SRSDLIVHQRLF] has an MIC (Escherichia coli) greater than 272 µM, an MIC [3] of no less than 272 µM and an MIC [22] of no less than 272 µM. For the same molecule, the MIC (Staphylococcus aureus) was greater than 272 µM and the MIC [14] was no less than 272 µM.
`CC[C@H](C)[C@H](NC(=O)[C@H](CCCCN)NC(=O)[C@H](CCC(=O)O)NC(=O)[C@H](CO)NC(=O)[C@H](CCCN=C(N)N)NC(=O)[C@@H](N)CO)C(=O)N[C@H](C(=O)N[C@@H](Cc1cnc[nH]1)C(=O)N[C@@H](CCC(N)=O)C(=O)N[C@@H](CCCN=C(N)N)C(=O)N[C@@H](CC(C)C)C(=O)N[C@@H](Cc1ccccc1)C(N)=O)C(C)C` [SRSEKIVHQRLF] was tested, and the MIC (Escherichia coli) was greater than 267 µM, the MIC [3] was no less than 267 µM and the MIC [22] was no less than 267 µM. For the same molecule, the MIC (Staphylococcus aureus) was greater than 267 µM and the MIC [14] was no less than 267 µM.
In the case of `CC[C@H](C)[C@H](NC(=O)[C@H](CCCCN)NC(=O)[C@H](C)NC(=O)[C@H](C)NC(=O)[C@H](C)NC(=O)[C@H](CCCCN)NC(=O)[C@H](C)NC(=O)[C@H](C)NC(=O)[C@H](C)NC(=O)[C@H](CCCCN)NC(=O)[C@@H](NC(=O)[C@@H](N)Cc1c[nH]c2ccccc12)[C@@H](C)CC)C(=O)N[C@@H](Cc1c[nH]c2ccccc12)C(N)=O` [WIKAAAKAAAKIW], the MIC [4] is reported as 32 µM (≈ 45.7 µg/mL), the MIC [1] is reported as 8 µM (≈ 11.4 µg/mL) and the MIC [23] is reported as 32 µM (≈ 45.7 µg/mL). The MIC [24] was 8 µM (≈ 11.4 µg/mL), the MIC [2] was 32 µM (≈ 45.7 µg/mL) and the MIC [25] was 8 µM (≈ 11.4 µg/mL). The MIC [26] was 32 µM (≈ 45.7 µg/mL), the MIC (Escherichia coli UB1005) was 8 µM (≈ 11.4 µg/mL) and the MIC [27] was 32 µM (≈ 45.7 µg/mL).
